Measured values from patent US20160333019A1, “SYNTHESIS AND FORMULATIONS OF PORPHYRIN COMPOUNDS” (Aeolus Sciences, Inc., priority 2013, published 2016).

Assay: Study 3: various strengths of Formula (VI) in WFI at pH 7.0, with and without ascorbic acid
Format: physicochemical
Method: Ascorbic acid was also included in this study. […] The samples were tested and evaluated for physicochemical stability under 2-8 and 60° C. storage conditions after 0, 3, 7 and 14 days.
(§1) About 10 g of WFI was placed in the container including a stir bar. […] The pH was measured and the solution was mixed at room temperature for 16-24 hours. At the end of the 16-24 hour hold/mix, the pH of solution was adjusted to pH 7.0 with either HCl or NaOH and mixed for about 15 minutes. The solution was filtered through a PVDF, 0.22 μm filter by discarding about 1 mL prior to placing about 9-10 mL into each of two separate clean containers. The pH of the samples was then measured.
as §1, with “bar. […] About 0.1026 g of Ascorbic Acid was added to the container while mixing.” for “bar.”, “discarding” for “discarding about”
as §1, with “bar. […] About 0.103 g of Ascorbic Acid was added to the container while mixing.” for “bar.”
Following preparation of the solutions, one container of each of solutions 1-6 was stored at 2-8° C. The remaining containers for each of solutions 1-6 were stored at 60° C. From each container, a sample was taken at 0, 3, 7 and 14 days and the pH of the solution was measured.

- pH increase (100 mg/mL refrigerated sample without ascorbic acid, after 3 day storage): ~1 pH unit
- pH decrease compared to the control sample (100 mg/mL sample without ascorbic acid, 60° C., after 14 days): ~2 pH units
- degradation (65, 75, 100 mg/mL in water pH 7 containing ascorbic acid, 60° C., after 14 days): 3-5%
- degradation (65, 75, 100 mg/mL in water pH 7 without ascorbic acid, 60° C., after 14 days): 3-5%
- pH decrease (65 and 75 mg/mL samples without ascorbic acid, 60° C., after 14 days): ~2 pH units
- pH stability (65 and 75 mg/mL samples without ascorbic acid, refrigerated condition): relatively stable
- pH increase from initial pH (all refrigerated samples containing ascorbic acid, after 14 days): ~1.5 pH units
- pH decrease from initial pH (samples containing ascorbic acid, 60° C., after 3 days): ~2 pH units
- pH rise back (samples containing ascorbic acid, 60° C., after 14 days): 1-1.5 pH units
Substance: [5,10,15,20-tetrakis(1,3-diethylimidazolium-2-yl)porphyrinato]manganese(III) chloride hydrate complex [Formula (VI)]
